Molecules are shown by their SMILES.

In the assay the target is T1, DGKA (Homo sapiens, UniProt P23743).
T1 construct: purchased SignalChem D21-10BG
T1 sequence (P23743 whole entry): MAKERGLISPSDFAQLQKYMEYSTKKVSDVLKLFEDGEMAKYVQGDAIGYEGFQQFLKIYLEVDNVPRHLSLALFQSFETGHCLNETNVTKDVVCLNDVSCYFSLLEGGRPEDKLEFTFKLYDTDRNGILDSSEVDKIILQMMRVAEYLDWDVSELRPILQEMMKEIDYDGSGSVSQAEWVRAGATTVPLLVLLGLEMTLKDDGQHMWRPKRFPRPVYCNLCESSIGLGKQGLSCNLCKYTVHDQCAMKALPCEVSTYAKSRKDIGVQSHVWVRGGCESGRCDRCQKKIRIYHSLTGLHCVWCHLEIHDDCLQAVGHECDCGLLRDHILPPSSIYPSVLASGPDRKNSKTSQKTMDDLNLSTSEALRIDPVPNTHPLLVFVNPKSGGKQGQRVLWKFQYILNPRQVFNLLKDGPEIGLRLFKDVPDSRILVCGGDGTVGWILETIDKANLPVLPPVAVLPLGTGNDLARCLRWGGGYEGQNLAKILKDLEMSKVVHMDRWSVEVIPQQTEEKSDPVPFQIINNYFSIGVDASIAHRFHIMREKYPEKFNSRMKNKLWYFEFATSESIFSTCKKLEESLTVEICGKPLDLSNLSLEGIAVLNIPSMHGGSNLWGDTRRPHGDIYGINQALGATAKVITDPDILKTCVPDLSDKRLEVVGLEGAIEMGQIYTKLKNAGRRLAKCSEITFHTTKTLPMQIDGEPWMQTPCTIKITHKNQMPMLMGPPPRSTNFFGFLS
Briefly: DGKA Inhibition ADP-Glo Assay. Particulars: 40 μM ATP. The assay is classed as biochemical. How it is done:
The DGKA inhibition reactions were performed using ADP-Glo assay. The reactions were carried out in 50 mM HEPES, 100 mM NaCl, 10 mM MgCl2, 1 mM CaCl2, 0.005% TritonX-100 and 1 mM DTT as working solution (pH=7.5). 30 nL DMSO solution of each test compound (Top concentration […] with 10 point, 4-fold dilution series for each compound) were transferred to 384 well plate by Echo and 5 μL DGKA (SignalChem, D21-10BG) enzyme working solution at 2× final reaction concentration was added to each well. After incubated at 25° C. for 15 minutes, 5 μL substrate working solution contain 40 μM ATP (Promega, V915B) and 200 µM DLG (SignalChem, D430-59) were added to initiate reaction. After enzymatic reaction at 25° C. for 60 min, ADP Glo assay reagents (Promega, V9102) were added and luminescence was recorded using an EnVision following the instruction of manual. […] The IC50 value was calculated via a regression analysis of the inhibition rate.
On the technique in general: ADP-Glo first removes unused ATP, then detects ADP through luciferase.
One may read the IC50 as the midpoint of a concentration-inhibition curve. The compound `Cn1c(=O)cc(N2CCOCc3c(C#CC4(C(F)(F)F)CC4)cccc32)c2nc(Cl)ccc21` [Example 1, 6-chloro-1-methyl-4-(6-((1-(trifluoromethyl)cyclopropyl)ethynyl)-2,3-dihydrobenzo[e][1,4]oxazepin-1(5H)-yl)-1,5-naphthyridin-2(1H)-one] displayed an IC50 of less than 1 nM.
Take `Cn1c(=O)cc(N2CCOCc3c(C#CC4(C(F)(F)F)CC4)cccc32)c2nc(C#N)ccc21` [Example 2, 5-methyl-6-oxo-8-(6-((1-(trifluoromethyl)cyclopropyl)ethynyl)-2,3-dihydrobenzo[e][1,4]oxazepin-1(5H)-yl)-5,6-dihydro-1,5-naphthyridine-2-carbonitrile]: the IC50 was less than 1 nM.
The compound `Cn1c(=O)nc(N2CCOCc3c(C#CC4(C(F)(F)F)CC4)cccc32)c2cc(C#N)ccc21` [Example 6, 1-methyl-2-oxo-4-(6-((1-(trifluoromethyl)cyclopropyl)ethynyl)-2,3-dihydrobenzo[e][1,4]oxazepin-1(5H)-yl)-1,2-dihydroquinazoline-6-carbonitrile] displayed an IC50 of less than 1 nM.
For the compound `Cn1c(=O)nc(N2CCOCc3c(C#CC4(C(F)(F)F)CC4)cccc32)c2nc(Cl)ccc21` [Example 7, 6-chloro-1-methyl-4-(6-((1-(trifluoromethyl)cyclopropyl)ethynyl)-2,3-dihydrobenzol[e][1,4]oxazepin-1(5H)-yl)pyrido[3,2-d]pyrimidin-2(1H)-one], the IC50 was less than 1 nM.
Under `Cn1c(=O)nc(N2CCOCc3c(C#CC4(C(F)(F)F)CC4)cccc32)c2nc(C#N)ccc21` [Example 8] stands less than 1 nM.
As to `Cn1c(=O)nc(N2CCOCc3c(C#CC4(C(F)(F)F)CC4)cccc32)c2cc(Cl)c(NCCO)cc21` [Example 15, 6-chloro-7-((2-hydroxyethyl)amino)-1-methyl-4-(6-((1-(trifluoromethyl)cyclopropyl)ethynyl)-2,3-dihydrobenzo[e][1,4]oxazepin-1(5H)-yl)quinazolin-2(1H)-one], the IC50 is less than 1 nM.
Turning to `Cn1c(=O)nc(N2CCOCc3c(C#CC4(C(F)(F)F)CC4)cccc32)c2cc(C#N)c(NCCO)cc21` [Example 16, 7-((2-hydroxyethyl)amino)-1-methyl-2-oxo-4-(6-((1-(trifluoromethyl)cyclopropyl)ethynyl)-2,3-dihydrobenzo[e][1,4]oxazepin-1(5H)-yl)-1,2-dihydroquinazoline-6-carbonitrile], the IC50 is less than 1 nM.
For the compound `COCCOc1cc2c(cc1C#N)c(N1CCOCc3c(C#CC4(C(F)(F)F)CC4)cccc31)nc(=O)n2C` [Example 18, 7-(2-methoxyethoxy)-1-methyl-2-oxo-4-(6-((1-(trifluoromethyl)cyclopropyl)ethynyl)-2,3-dihydrobenzo[e][1,4]oxazepin-1(5H)-yl)-1,2-dihydroquinazoline-6-carbonitrile], the IC50 is less than 1 nM.
`Cn1c(=O)nc(N2CCOCc3c(C#CC4(C(F)(F)F)CC4)cccc32)c2cc(Cl)c(O[C@H]3CCOC3)cc21` [Example 21, (S)-6-chloro-1-methyl-7-((tetrahydrofuran-3-yl)oxy)-4-(6-((1-(trifluoromethyl)cyclopropyl)ethynyl)-2,3-dihydrobenzo[e][1,4]oxazepin-1(5H)-yl)quinazolin-2(1H)-one] had an IC50 of less than 1 nM.
Under `Cn1c(=O)nc(N2CCOCc3c(C#CC4(C(F)(F)F)CC4)cccc32)c2cc(Cl)c(O[C@@H]3CCOC3)cc21` [Example 22, (R)-6-chloro-1-methyl-7-((tetrahydrofuran-3-yl)oxy)-4-(6-((1-(trifluoromethyl)cyclopropyl)ethynyl)-2,3-dihydrobenzo[e][1,4]oxazepin-1(5H)-yl)quinazolin-2(1H)-one] stands less than 1 nM; under `Cn1c(=O)nc(N2CCOCc3c(C#CC4(C(F)(F)F)CC4)cccc32)c2cc(C#N)c(O[C@H]3CCOC3)cc21` [Example 23, (S)-1-methyl-2-oxo-7-((tetrahydrofuran-3-yl)oxy)-4-(6-((1-(trifluoromethyl)cyclopropyl)ethynyl)-2,3-dihydrobenzo[e][1,4]oxazepin-1(5H)-yl)-1,2-dihydroquinazoline-6-carbonitrile], less than 1 nM.
Consider `Cn1c(=O)nc(N2CCOCc3c(C#CC4(C(F)(F)F)CC4)cccc32)c2cc(C#N)c(O[C@@H]3CCOC3)cc21` [Example 24, (R)-1-methyl-2-oxo-7-((tetrahydrofuran-3-yl)oxy)-4-(6-((1-(trifluoromethyl)cyclopropyl)ethynyl)-2,3-dihydrobenzo[e][1,4]oxazepin-1(5H)-yl)-1,2-dihydroquinazoline-6-carbonitrile], for which the IC50 is less than 1 nM.
Consider `Cn1c(=O)nc(N2CCOCc3c(C#CC4(C(F)(F)F)CC4)cccc32)c2cc(C#N)c(OC3CCOCC3)cc21` [Example 26, 1-methyl-2-oxo-7-((tetrahydro-2H-pyran-4-yl)oxy)-4-(6-((1-(trifluoromethyl)cyclopropyl)ethynyl)-2,3-dihydrobenzo[e][1,4]oxazepin-1(5H)-yl)-1,2-dihydroquinazoline-6-carbonitrile], for which the IC50 was less than 1 nM.
Under `Cn1c(=O)nc(N2CCOCc3c(C#CC4(C(F)(F)F)CC4)cccc32)c2cc(Cl)c(OCCCO)cc21` [Example 27, 6-chloro-7-(3-hydroxypropoxy)-1-methyl-4-(6-((1-(trifluoromethyl)cyclopropyl)ethynyl)-2,3-dihydrobenzo[e][1,4]oxazepin-1(5H)-yl)quinazolin-2(1H)-one] stands less than 1 nM; under `Cn1c(=O)nc(N2CCOCc3c(C#CC4(C(F)(F)F)CC4)cccc32)c2cc(C#N)c(OCCCO)cc21` [Example 28, 7-(3-hydroxypropoxy)-1-methyl-2-oxo-4-(6-((1-(trifluoromethyl)cyclopropyl)ethynyl)-2,3-dihydrobenzo[e][1,4]oxazepin-1(5H)-yl)-1,2-dihydroquinazoline-6-carbonitrile], less than 1 nM.
Under `Cn1c(=O)nc(N2CCOCc3c(C#CC4(C)CC4)cccc32)c2cc(Cl)c(OCCO)cc21` [Example 29, 6-chloro-7-(2-hydroxyethoxy)-1-methyl-4-(6-((1-methylcyclopropyl)ethynyl)-2,3-dihydrobenzo[e][1,4]oxazepin-1(5H)-yl)quinazolin-2(11H)-one] stands less than 1 nM.
Under `Cn1c(=O)nc(N2CCOCc3c(C#CC4(C(F)(F)F)CC4)ccnc32)c2cc(Cl)c(OCCO)cc21` [Example 30, 6-chloro-7-(2-hydroxyethoxy)-1-methyl-4-(6-((1-(trifluoromethyl)cyclopropyl)ethynyl)-2,3-dihydropyrido[2,3-e][1,4]oxazepin-1(5H)-yl)quinazolin-2(1H)-one] stands less than 1 nM.
`Cn1c(=O)nc(N2CCOCc3c(C#CC4(C(F)(F)F)CC4)cncc32)c2cc(Cl)c(OCCO)cc21` [Example 31, 6-chloro-7-(2-hydroxyethoxy)-1-methyl-4-(6-((1-(trifluoromethyl)cyclopropyl)ethynyl)-2,3-dihydropyrido[3,4-e][1,4]oxazepin-1(5H)-yl)quinazolin-2(1H)-one]: the IC50 is less than 1 nM.
Under `Cn1c(=O)nc(N2CCOCc3c(C#CC4(C(F)(F)F)CC4)cccc32)c2cc(Cl)c(OC3CCNC3)cc21` (centres unmarked) [Example 34, 6-chloro-1-methyl-7-(pyrrolidin-3-yloxy)-4-(6-((1-(trifluoromethyl)cyclopropyl)ethynyl)-2,3-dihydrobenzo[e][1,4]oxazepin-1(5H)-yl)quinazolin-2(1H)-one] stands 1 to 10 nM; under `CN1CCC(Oc2cc3c(cc2Cl)c(N2CCOCc4c(C#CC5(C(F)(F)F)CC5)cccc42)nc(=O)n3C)C1` (centres unmarked) [Example 35, 6-chloro-1-methyl-7-((1-methylpyrrolidin-3-yl)oxy)-4-(6-((1-(trifluoromethyl)cyclopropyl)ethynyl)-2,3-dihydrobenzo[e][1,4]oxazepin-1(5H)-yl)quinazolin-2(1H)-one], 1 to 10 nM.
Under `Cn1c(=O)nc(N2CCOCc3ccccc32)c2cc(Cl)c(OCCO)cc21` [Example 36, 6-chloro-4-(2,3-dihydrobenzo[e][1,4]oxazepin-1(5H)-yl)-7-(2-hydroxyethoxy)-1-methylquinazolin-2(1H)-one] stands 1 to 10 nM.
In turn, `Cn1c(=O)nc(N2CCOCc3c(C4CC4)cccc32)c2cc(Cl)c(OCCO)cc21` [Example 37, 6-chloro-4-(6-cyclopropyl-2,3-dihydrobenzo[e][1,4]oxazepin-1(5H)-yl)-7-(2-hydroxyethoxy)-1-methylquinazolin-2(1H)-one] yielded an IC50 of 1 to 10 nM.
Compound `Cc1cccc2c1COCCN2c1nc(=O)n(C)c2cc(OCCO)c(Cl)cc12` [Example 38, 6-chloro-7-(2-hydroxyethoxy)-1-methyl-4-(6-methyl-2,3-dihydrobenzo[e][1,4]oxazepin-1(5H)-yl)quinazolin-2(11H)-one] returned an IC50 of 1 to 10 nM.
On to `C#Cc1cccc2c1COCCN2c1nc(=O)n(C)c2cc(OCCO)c(Cl)cc12` [Example 39, 6-chloro-4-(6-ethynyl-2,3-dihydrobenzo[e][1,4]oxazepin-1(5H)-yl)-7-(2-hydroxyethoxy)-1-methylquinazolin-2(1H)-one], for which the IC50 is less than 1 nM.
Under `CC#Cc1cccc2c1COCCN2c1nc(=O)n(C)c2cc(OCCO)c(Cl)cc12` [Example 40, 6-chloro-7-(2-hydroxyethoxy)-1-methyl-4-(6-(prop-1-yn-1-yl)-2,3-dihydrobenzo[e][1,4]oxazepin-1(5H)-yl)quinazolin-2(1H)-one] stands less than 1 nM; under `COc1cccc2c1COCCN2c1nc(=O)n(C)c2cc(OCCO)c(Cl)cc12` [Example 42, 6-chloro-7-(2-hydroxyethoxy)-4-(6-methoxy-2,3-dihydrobenzo[e][1,4]oxazepin-1(5H)-yl)-1-methylquinazolin-2(1H)-one], 1 to 10 nM.

Values taken from patent US20250214990A1, “DIACYLGLYCEROL KINASE (DGK) ALPHA INHIBITORS AND USES THEREOF” (Insilico Medicine IP Limited, priority 2022, published 2025).
